{"source": "paper PMC9166630", "about": "“SAR Probing of KX2-391 Provided Analogues With Juxtaposed Activity Profile Against Major Oncogenic Kinases” (Frontiers in Oncology, 2022)", "type_in_all_cases": "cell-based", "key": {"[1]": {"system": "N87 (stomach) cancer cells", "experiment": "SRB cytotoxicity assay, N87", "conditions": "Homo sapiens, 72 h, maximum tested concentration 50 µM, read-out: IC50 ± SEM, N87", "method": "MCF7 (breast) or N87 (stomach) cancer cells were grown in Roswell Park Memorial Institute-1640 (RPMI-1640) medium (Thermo Fisher Scientific, Inc; Waltham, MA, USA), supplemented with 10% heat inactivated fetal bovine serum (FBS), 50 units/mL of penicillin and […] of streptomycin and maintained at 37°C in a humidified atmosphere containing 5% CO2. The cells were maintained as “monolayer culture” by serial subculturing.\nCytotoxicity was determined using Sulforhodamine B (SRB) method as previously described by Skehan et al. ([66]). Exponentially growing MCF7 and N87 cells were collected using 0.25% Trypsin-EDTA and were then seeded in 96-well plates at a density of 1000-2000 cells/well in 10% FBS and penicillin/streptomycin supplemented RPMI-1640 medium. After 24 h, cells were treated with different concentrations of test compounds and incubated for 72 h at 37°C in a humidified atmosphere containing 5% CO2. Next, the cells were fixed by adding trichloroacetic acid (TCA, 10% final conc. in wells) directly to the wells and incubated for 1 h at 4°C, then cells were washed with distilled water 5 times to remove excess TCA, media, serum proteins, and metabolites, followed by air drying. After that, the fixed cells were stained with 0.4% SRB dissolved in 1% acetic acid for 10 min at room temperature, and excess stain was removed by quickly rinsing with 1% acetic acid. The residual acetic acid was removed completely by air drying the plates for 24 h, and the dye was solubilized with Tris buffer (pH= 7.4, 10 mM) for 5 min on a shaker at 1600 rpm. The optical density (OD) of each well was measured spectrophotometrically at 564 nm with an ELISA microplate reader (ChroMate-4300, FL, USA). The IC50 values (concentration of drug resulting in 50% reduction in cell survival) were calculated according to the equation for Boltzman sigmoidal concentration–response curve using the nonlinear regression fitting models (Graph Pad, Prism Version 5)."}, "GSK-3α/β": {"system": "GSK-3α/β", "experiment": "Human phosphokinase array, GSK-3α/β", "source_text": "(§1) The kinome tree representation (Figure 7C), which was generated by raising the Kinase Score cut-off to >1.2, confirmed that, unlike tirbanibulin and our prototype molecule KX1-136, 4e’s effects were more observable on kinases other than the Src family such as the Eph and TEC families. […] Therefore, we screened compound 4e using the Human Phospho-Kinase Array® kit from R&D systems (Minneapolis, MN, USA). In this system, 35 phosphorylated YK and serine-threonine kinase (STK) enzymes in the untreated (control) and treated (test) HL60 cell lysates were captured on nitrocellulose membrane, pre-spotted with phosphokinase-specific capture antibodies, and then visualized by detection antibody cocktails (Figure 8). The difference in the spot intensity between untreated (control) and treated cells is proportional to change in the amount of the phosphorylated protein induced by 4e.\n(§2) The phosphorylation profile of 48 kinases was performed using the Proteome Profiler Human Phospho-Kinase Antibody Array Kit by R&D Systems (Minneapolis, MN, USA) according to the protocol. Briefly, the total cellular protein was extracted using the Lysis buffer and was quantified using Bio-Rad DC Protein Assay kit (Hercules, CA, USA). Nitrocellulose membrane set (A&B), pre-spotted with kinase-specific capture antibodies, were first blocked with Array Buffer-1 at RT for 30 min on a rocking platform shaker. Approximately 600 µg of protein concentrate was diluted in the buffer provided and was added onto the membrane set, and the membranes were incubated overnight at 4°C in an 8-well plate. Subsequently, membranes were washed with Wash Buffer and incubated with appropriate Detection Antibody cocktails for 2 h at RT. Streptavadin-HRP (1:2000) was added onto membranes and incubated for 30 min at RT. Membranes were washed, and Chemiluminescent Detection Reagents 1&2 were applied in equal volumes for detection. The signals were detected on C-DiGit®Blot Scanner (LI-COR, Odyssey Imaging Systems, Lincoln, Nebraska, USA) using Image Studio 5.0 software."}, "HSP27": {"system": "HSP27", "experiment": "Human phosphokinase array, HSP27", "source_text": "as §1, §2"}}, "note": "Several values for one entry are separate records, joined by “and”; a condition that tells them apart may be missing. Identical values can stand only once.", "data": [{"compound": "O=C(Cc1ccc(NC(=O)c2cccc(Cl)c2)cc1)NCc1ccccc1", "note": "[Compound 4e, N-(4-(2-(benzylamino)-2-oxoethyl)phenyl)-3-chlorobenzamide]", "values": [{"measurement": "IC50", "setting": "[1]", "value": "5.28 ± 0.91", "unit": "µM"}, {"measurement": "phosphokinase signal after 4e exposure, GSK-3α/β", "setting": "GSK-3α/β; HL60 cell lysate, treated", "value": 102.64}, {"measurement": "Change in Signal, GSK-3α/β", "setting": "GSK-3α/β; treated vs untreated HL60", "value": 22.94}, {"measurement": "% Change, GSK-3α/β", "setting": "GSK-3α/β; treated vs untreated HL60, Ser9 phosphorylation", "value": "28.78% and 28%"}, {"measurement": "decrease of Hsp27 Ser78 and Ser82 phosphorylation", "setting": "HSP27; HL60, versus control", "value": 92.3, "unit": "%"}, {"measurement": "phosphokinase signal after 4e exposure, HSP27", "setting": "HSP27; HL60 cell lysate, treated", "value": 3.71}, {"measurement": "% Change, HSP27", "setting": "HSP27; treated vs untreated HL60", "value": -92.31, "unit": "%"}, {"measurement": "Change in Signal, HSP27", "setting": "HSP27; treated vs untreated HL60", "value": -44.51}]}]}
